Tests used:
[1] = target: T1, CB1 receptor (Mus musculus, UniProt P47746); assay type: biochemical, mice
[2] = target: T1, CB1 receptor; experiment: [3H]WIN55,212-2 autoradiography in brain sections after subchronic treatment; assay type: binding; settings: FAAH−/− mice treated subchronically; 1 nM radioligand; mean ± SEM
[3] = test system: FAAH−/− and FAAH+/+ mice; settings: FAAH−/− mice ref Cravatt et al., 2001; cited from earlier work
[4] = test system: FAAH−/− and FAAH+/+ mice; experiment: Rimonabant-precipitated withdrawal; assay type: in vivo; settings: after subchronic 50 mg/kg twice daily 5.5 days; rimonabant 10 mg/kg i.p.
[5] = target: T1, CB1 receptor; experiment: Agonist-stimulated [35S]GTPγS binding in spinal cord membranes; assay type: biochemical, mice
[6] = test system: FAAH−/− and FAAH+/+ mice; experiment: Bar test for catalepsy, cumulative dose-response; assay type: in vivo
[7] = test system: FAAH−/− and FAAH+/+ mice; experiment: Tail withdrawal; assay type: in vivo
[8] = THC blood and brain levels, single bolus vs cumulative dosing; assay type: in vivo; settings: C57Bl/6J mice, mean ± SEM
[9] = test system: FAAH−/− and FAAH+/+ mice; experiment: Hypothermia; assay type: in vivo
[10] = FAAH−/− mice treated subchronically, WIN55,212-2 10 μM, mean ± SEM
[11] = FAAH+/+ mice, naive, cumulative dosing
[12] = FAAH−/− mice, naive, cumulative dosing
[13] = Table 3, FAAH−/− mice, subchronic AEA
[14] = Table 3, FAAH−/− mice, subchronic vehicle
[15] = Table 3, FAAH−/− mice, subchronic THC

T1 sequence (P47746 whole entry): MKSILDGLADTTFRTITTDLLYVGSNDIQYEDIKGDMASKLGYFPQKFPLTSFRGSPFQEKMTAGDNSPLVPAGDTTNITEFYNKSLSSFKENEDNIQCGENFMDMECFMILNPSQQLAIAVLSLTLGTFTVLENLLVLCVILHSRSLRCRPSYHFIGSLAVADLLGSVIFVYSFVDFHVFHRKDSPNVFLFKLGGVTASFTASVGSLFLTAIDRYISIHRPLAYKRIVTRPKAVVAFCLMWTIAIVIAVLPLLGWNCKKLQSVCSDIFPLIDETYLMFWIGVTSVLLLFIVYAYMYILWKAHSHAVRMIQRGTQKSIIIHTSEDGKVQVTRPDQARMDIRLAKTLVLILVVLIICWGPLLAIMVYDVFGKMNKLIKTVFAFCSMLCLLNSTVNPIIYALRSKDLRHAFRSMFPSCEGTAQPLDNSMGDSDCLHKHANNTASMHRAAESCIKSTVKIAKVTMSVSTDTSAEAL

## CCCCC/C=C\C/C=C\C/C=C\C/C=C\CCCC(=O)NCCO [AEA, N-arachidonoyl ethanolamine]
[1]; FAAH+/+ and FAAH−/− mice, caudate putamen, hippocampus, cerebellum
  WIN55,212-2-stimulated [35S]GTPγS binding vs vehicle control (study 1, Figure 5): not different from vehicle control
[1]; [10]
  Net WIN55,212-2-stimulated [35S]GTPγS binding, Caudate-Putamen: 152 ± 28 nCi/g
  Net WIN55,212-2-stimulated [35S]GTPγS binding, Cerebellum: 178 ± 23 nCi/g
  Net WIN55,212-2-stimulated [35S]GTPγS binding, Globus Pallidus: 639 ± 60 nCi/g
  Net WIN55,212-2-stimulated [35S]GTPγS binding, Hippocampus: 132 ± 24 nCi/g
  Net WIN55,212-2-stimulated [35S]GTPγS binding, PAG: 79 ± 19 nCi/g
  Net WIN55,212-2-stimulated [35S]GTPγS binding, Substantia Nigra: 592 ± 49 nCi/g
[2]
  Specific [3H]WIN55,212-2 binding, Caudate-Putamen: 0.95 ± 0.09 pCi/g
  Specific [3H]WIN55,212-2 binding, Cerebellum: 1.69 ± 0.18 pCi/g
  Specific [3H]WIN55,212-2 binding, Globus Pallidus: 2.31 ± 0.18 pCi/g
  Specific [3H]WIN55,212-2 binding, Hippocampus: 0.88 ± 0.06 pCi/g
  Specific [3H]WIN55,212-2 binding, PAG: 0.57 ± 0.06 pCi/g
  Specific [3H]WIN55,212-2 binding, Substantia Nigra: 3.11 ± 0.29 pCi/g
[3]
  Persistence of antinociception, catalepsy, locomotor inhibition and hypothermia: 6 to 8 h
[4]
  Rimonabant precipitated head twitches / headshakes: no changes
[5]; spinal cord membranes from AEA-treated FAAH−/− mice
  Emax of agonist-stimulated [35S]GTPγS binding: 35 ± 3.3 % Stim
[5]; spinal cord membranes from AEA-treated mice
  Emax as percent of that obtained in vehicle-treated mice: 104%
[5]; spinal cord membranes from THC-treated FAAH−/− mice
  Emax of agonist-stimulated [35S]GTPγS binding: 25 ± 2.3 % Stim
[5]; spinal cord membranes from THC-treated mice
  Emax as percent of that obtained in vehicle-treated mice: 75%
[5]; spinal cord membranes from vehicle-treated FAAH−/− mice
  Emax of agonist-stimulated [35S]GTPγS binding: 34 ± 1.6 % Stim

## CCCCCc1cc(O)c2c(c1)OC(C)(C)[C@@H]1CCC(C)=C[C@@H]21 [THC, Δ^9-tetrahydrocannabinol]
[6]; [11]
  Catalepsy ED50 (95% CI): 18 (13-25) mg/kg
[6]; FAAH+/+ mice, subchronic THC, @ 300 mg/kg
  Catalepsy maximum effect: 62% @ 300 mg/kg
[6]; [12]
  Catalepsy ED50 (95% CI): 21 (15-28) mg/kg
[6]; FAAH−/− mice, subchronic AEA, @ 300 mg/kg
  Catalepsy maximum effect: 25% @ 300 mg/kg
[6]; FAAH−/− mice, subchronic THC, @ 300 mg/kg
  Catalepsy maximum effect: 67% @ 300 mg/kg
[6]; [13]
  Catalepsy ED50 (95% CI): 62 (56-69) mg/kg
[6]; Table 3, FAAH−/− mice, subchronic THC, @ 150 mg/kg
  Catalepsy maximum effect: 50% @ 150 mg/kg
[6]; [14]
  Catalepsy ED50 (95% CI): 16 (13-19) mg/kg
[7]; [11]
  Antinociception ED50 (95% CI): 19 (14-26) mg/kg
[7]; [12]
  Antinociception ED50 (95% CI): 22 (17-30) mg/kg
[7]; FAAH−/− mice, subchronic THC 50 mg/kg twice daily 5.5 days, @ 300 mg/kg
  Antinociception maximum effect ± SEM: 25 + 4%MPE @ 300 mg/kg
[7]; [13]
  Antinociception ED50 (95% CI): 55 (44-69) mg/kg
[7]; [15]
  Antinociception ED50 (95% CI): 76 (58-99) mg/kg
[7]; [14]
  Antinociception ED50 (95% CI): 20 (16-24) mg/kg
[4]
  Rimonabant precipitated head twitches / headshakes: significant increases
[8]; THC 3 mg/kg
  Brain THC level, single bolus: 77 ± 5 ng/mL
[8]; THC 10 mg/kg
  Brain THC level, single bolus: 212 ± 19 ng/mL
[8]; THC 30 mg/kg cumulative
  Brain THC level, cumulative dosing: 641 ± 134 ng/mL
[8]; THC 30 mg/kg
  Brain THC level, single bolus: 520 ± 79 ng/mL
[8]; THC 56 mg/kg cumulative
  Brain THC level, cumulative dosing: 1294 ± 178 ng/mL
[8]; THC 56 mg/kg
  Brain THC level, single bolus: 1072 ± 156 ng/mL
[9]; [11]
  Hypothermia ED50 (95% CI): 18 (15-22) mg/kg
[9]; FAAH+/+ mice, subchronic THC
  Hypothermia ED50 (95% CI): 109 (62- 190) mg/kg
[9]; [12]
  Hypothermia ED50 (95% CI): 22 (16-32) mg/kg
[9]; FAAH−/− mice, subchronic AEA
  Hypothermia ED50 (95% CI): 133 (106- 166) mg/kg
[9]; FAAH−/− mice, subchronic THC
  Hypothermia ED50 (95% CI): 224 (190- 266) mg/kg
[9]; [13]
  Hypothermia ED50 (95% CI): 50 (40-55) mg/kg
[9]; [15]
  Hypothermia ED50 (95% CI): 32 (27-38) mg/kg
[9]; [14]
  Hypothermia ED50 (95% CI): 17 (15-20) mg/kg
